“Also recorded” adds a separate entry of the source.
Experiments:
[1] = system: splenocytes from BALB/c mice; test: In vitro proliferation assay of splenocytes (3H-thymidine uptake); type: cell-based, mouse; details: for mitogenic activity of rTcPA45 in cultures supplemented with substrate: 50 μg/ml rTcPA45, increasing amounts of L- or D-proline, 3 mM to 50 mM; for cell proliferation with substrate alone: 50 mM L- or D-proline alone; for 3H-thymidine uptake: after 48 h, ConA 10 μg/ml, LPS 5 μg/ml, 5×10^4 cells/well; for mitogenic activity of rTcPA45 pre-incubated with inhibitor: 50 μg/ml rTcPA45 pre-incubated 10 min at 37° C. with 1 mM inhibitor
Procedure: Briefly, freshly recovered splenocytes from 8 week old male Balb/c mice seeded at a concentration of 5×10^4 cells/well were incubated for 24, 48 and 72 h in 5% FCS RPMI-1640 medium. A 16 h ^3H-thymidine pulse at 1 μCi/well was performed before harvesting. ^3H-Thymidine uptake was determined in a beta-plate liquid scintillation counter (LKB-Wallac). All points were done in triplicate and the corresponding standard deviation calculated. For comparison, ^3H-thymidine uptake after 48 h in the presence of ConA (10 μg/ml) and LPS (5 μg/ml) was 32000 c.p.m. and 3500 c.p.m., respectively. T-cell depletion was performed by incubating freshly recovered spleen cells for 30 min at 37° C. in the presence of anti-Thy 1.2 monoclonal antibody (Cedarlane) and rabbit complement (Cedarlane). In order to rule out a possible mitogenic effect due to LPS contamination in samples, proliferation assays were also performed on freshly recovered splenocytes from the LPS non-responder mouse strain C3H/Hej. Same levels of proliferation were verified. Balb/c mice were purchased from Charles River, France. C3H/Hej mice were maintained in our animal facilities.
In vitro proliferation is accomplished using freshly recovered splenocytes from BALB/c mice seeded at a density of 5×10^4 cells/well and incubated for 24, 48 and 72 h with increasing concentrations of total parasite supernatants or recombinant TcPa45 protein or other mitogen (0.07-200 μg/ml) with 0.5 μg/ml of the HPLC fractions, or with the conventionally used mitogens concanavalin A (10 μg/ml) and lipopolysaccharide (5 μg/ml) in 5% FCS in RPMI-1640 complete medium. T-cell depletion is accomplished by incubating freshly recovered spleen cells for 30 min. at 37° C. in the presence of monoclonal antibodies against Thy 1.2 and rabbit complement (Cedarlane, Le Perray en Yvelines, France). Analysis of proliferative activity of total splenocytes (5×10^4 cells/well) in the presence of 50 μg/ml enzymatically active rTcPA45 or other mitogen is also compared with the proliferation obtained using the same amounts of rTcPA45 protein or other mitogen lacking racemase activity (by heating for 10 min. at 30° C. or by long term storage at 4° C.). Inhibition of proliferation is obtained by adding to the splenocyte cultures 50 μg/ml rTcPA45 or other mitogen pre-incubated for 10 min. at 37° C. with 1 mM inhibitor, either specific (pyrrole-2-carboxylic acid) or nonspecific (iodoacetamide or iodoacetate). Competitive assays of proliferative activity by 50 μg/ml rTcPA45 or other mitogen are done by adding increasing concentrations of specific substrates i.e., proline racemase substrates (L- or D-proline) for the mitogen rTcPA45 ranging from 3 mM to 50 mM. Controls include the incubation of splenocytes (5×10^4 cells/well) with substrate alone, i.e., 50 mM L- or D-proline in RPMI medium alone for prline racemase. Cultures are collected after a 16-hour pulse or 1 μCi/well ^3H-thymidine uptake was determined in a beta-plate liquid scintillation counter (LKB-Wallac, Orsay, France). All data points are obtained in triplicate and the corresponding standard deviation is calculated.
5×10^5 naive spleen cells/well (96 well plate) were stimulated in vitro with different doses of rTcPA45 (ranging in FIG. 4b from 0.8 to 200 μg/ml final) for 24, 48 and 72 h, at 37° C., 5% CO2. Cultures were pulsed with ^3H-Thymidine (1 μCi/well) for 16-18 h before harvesting. ^3H-thymidine incorporation was obtained after counting using a beta-plate. Results present arithmetic means of c.p.m. (counts/minute) from 6 wells/dose of rTcPA45 or wells containing medium alone (+/−SD of the means).

rTcPA45 proline racemase = target: T1, rTcPA45 proline racemase (Trypanosoma cruzi, UniProt Q4DA80); type: biochemical; details: inhibitors 6 mM to 100 mM
T1 construct: 6xHis (C); made in house; host or cells: E. coli (pET28b(+))
Procedure: To investigate the genomic organization and transcription of the Tc45 gene, Southern and Northern blot analyses were done. FIG. 4 depicts the results of characterization of rTcPA45 activities. FIG. 4, part a, is an 8% SDS-PAGE gel of rTcPA45 (Coomasie blue staining). Part b depicts the proliferative activity of total splenocytes (5×10^4 cells/well) in the presence of increasing concentrations of rTcPA45 (μg/ml). […] Reaction conditions were: 0.2 M Na-acetate/25 mM β-mercaptoethanol buffer, pH6, rTcPA45 (3 μg/ml), 30 min incubation at 37° C. in 500 μl. The reaction was stopped by incubating for 10 min at 80° C. […] Reactions were carried out for 30 min at 37° C. and stopped for 5 min at 80° C. All reagents and inhibitors were purchased from Sigma. The shift in optical rotation was measured in a Polarimeter 241 MC (Perkin Elmer).
A suitable test for testing an active molecule inhibiting the polypeptide according to the invention is performed as follows: • The recombinant amino acid purified or native racemase is diluted in sodium acetate buffer or Tris or phophate on Hepes buffer at 3 micrograms per 500 microliters in the presence of 20 millmolar of beta mercepto ethanol and 10 to 80 millimolar of L or D substrate and containing various concentrations of active molecule to be tested. This reaction is incubated for 30 minutes at 37° C. and stopped by heating at 80° C. Variations in optical rotation are measured by a polarimeter.
3 μg of rTcPA45 was diluted in 500 μl of buffer (0.2M NaOAc, 20 mM β-mercaptoethanol, pH6.0) containing different concentrations of the substrate (10-80 mM or L- or D-proline). (See FIG. 4c.) The reaction was incubated for 30-60 minutes at 37° C. in a water bath, followed by heat inactivation of the enzyme for 10 minutes at 80° C. Each sample is diluted to 1.5 ml with water and the mixture submitted to measurement of optical rotation using a polarimeter, at 365 nm. A sample without enzyme is used as a control. […]
The percent of racemization of different concentrations of L-proline, D-proline, L-hydroxy-proline and D-hydroxy-proline substrates was calculated by incubating a 500-μl mixture of 3 μg TcPA45 and 10-80 mM substrate in 0.2 M sodium acetate and 25 mM β-mercaptoethanol, pH 6, for 30 min at 37° C. […] Water (1 ml) was then added, and the optical rotation was measured in polarimeter 241 MC (Perkin Elmer, Montignyle Bretonneux, France) at a wavelength of 365 nm, in a cell with a path length of 10 cm. […] The percent racemization of 80 mM L-proline as a function of pH was determined using 0.2 M sodium acetate, potassium phosphate and Tris-HCl buffers containing 25 mM β-mercaptoethanol; reactions were incubated for 30 min at 37° C. as described above. […]

T1 sequence (Q4DA80 30-423): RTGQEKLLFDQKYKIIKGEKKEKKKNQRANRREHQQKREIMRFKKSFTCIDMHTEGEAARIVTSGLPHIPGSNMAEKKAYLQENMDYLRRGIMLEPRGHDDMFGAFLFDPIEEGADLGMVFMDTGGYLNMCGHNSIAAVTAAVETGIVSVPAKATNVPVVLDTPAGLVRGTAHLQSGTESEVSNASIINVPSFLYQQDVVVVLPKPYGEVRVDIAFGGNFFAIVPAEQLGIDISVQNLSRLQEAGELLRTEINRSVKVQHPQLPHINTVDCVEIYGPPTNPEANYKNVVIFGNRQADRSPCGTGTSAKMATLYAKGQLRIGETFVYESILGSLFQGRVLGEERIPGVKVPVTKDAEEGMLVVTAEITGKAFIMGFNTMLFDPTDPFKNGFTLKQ

In the case of `O=C(O)[C@@H]1CCCN1` [L-proline], the “mitogenic activity of rTcPA45 in cultures supplemented with substrate” value [1] is reported as “affected considerably; also recorded: decrease” and the “cell proliferation with substrate alone” value [1] is reported as “no cell proliferation”.
With concanavalin A [ConA] the 3H-thymidine uptake [1] was 32000 c.p.m and the 3H-thymidine uptake ([1]; listed as concavalin A) was 32,000 c.p.m.
In the case of `O=C(O)[C@H]1CCCN1` [D-proline], the “mitogenic activity of rTcPA45 in cultures supplemented with substrate” value [1] is reported as “affected considerably; also recorded: decrease” and the “cell proliferation with substrate alone” value [1] is reported as “no cell proliferation”.
For lipopolysaccharide [LPS], the 3H-thymidine uptake [1] was 3500 c.p.m and the 3H-thymidine uptake ([1]; listed as lipopolysaccharide) was 3,500 c.p.m.
In the case of `O=C(O)c1ccc[nH]1` [pyrrole-2-carboxylic acid], the “mitogenic activity of rTcPA45 pre-incubated with inhibitor” value (shortened to “mitogenic activity … with inhibitor”) [1] is reported as “abolished” and the “inhibition of rTcPA45 enzymatic activity (racemization of 80 mM L-proline)” value (shortened to “inhibition of rTcPA45 enzymatic activity”) (rTcPA45 proline racemase) is reported as “inhibited to different extents”.
In the case of `NC(=O)CI` [iodoacetamide], the “mitogenic activity … with inhibitor” value [1] is reported as “abolished” and the “inhibition of rTcPA45 enzymatic activity” value (rTcPA45 proline racemase) is reported as “inhibited to different extents”.
With `O=C(O)/C=C\C(=O)O` [maleic acid] the “inhibition of rTcPA45 enzymatic activity” value (rTcPA45 proline racemase) was “inhibited to different extents”.
With `O=C(O)CI` [iodoacetate] the “mitogenic activity … with inhibitor” value [1] was “abolished” and the “inhibition of rTcPA45 enzymatic activity” value (rTcPA45 proline racemase) was “inhibited to different extents”.

Reference: patent US8168770B2, “Cloning, sequencing and expression of a gene encoding an eukaryotic amino acid racemase, and diagnostic, therapeutic, and vaccination applications of parasite and viral mitogens” (priority 1999, dated 2012)
